In patent US20230404863A1, “MICRONEEDLE PATCH AND PREPARATION METHOD THEREFOR” (SUZHOU REVEDA MEDICAL BIOTECH CO., LTD., priority 2020, published 2023):

Test: Stability of astaxanthin in patch vs aqueous solution (UV spectrophotometer, color)
Assay type: physicochemical
Details: room temperature
Text: Astaxanthin and resveratrol are easily oxidized and are very unstable in water and in emulsions. Due to immiscibility of resveratrol with water, it was first hydrophilically modified, and its stability in patches and that in solutions was compared. The patches were made of astaxanthin and the hydrophilically modified resveratrol, and the solutions were aqueous solutions of astaxanthin and the hydrophilically modified resveratrol at the same concentrations.

Color of astaxanthin after 6 days (in aqueous solution): became much lighter
Structure (SMILES): CC1=C(/C=C/C(C)=C/C=C/C(C)=C/C=C/C=C(C)/C=C/C=C(C)/C=C/C2=C(C)C(=O)[C@@H](O)CC2(C)C)C(C)(C)C[C@H](O)C1=O [astaxanthin]
Content of astaxanthin after 6 days vs the beginning (in aqueous solution at the same concentration, without avoiding exposure to light): significantly lower than that at the beginning
